For this assay, the species on record is Cavia porcellus. Description: Inhibitory activity against potassium (15 mM) induced contractions of the guinea pig detrusor smooth muscle. It counts as functional.

The record followed here is ChEMBL document CHEMBL1129014, “Crystal receptor models in medicinal chemistry: Application to the generation of highly potent potassium channel openers” (Bioorg Med Chem Lett, 1996).

In general, IC50 refers to the concentration that inhibits the measured activity by half. Higher therefore signals lower potency. Regarding `C[C@](O)(C(=O)Nc1ccc(S(=O)(=O)c2ccccc2)cc1)C(F)(F)F`, the concentration for half-maximal inhibition (IC50) worked out at 1000 nM.
To `C[C@](O)(C(=O)Nc1ccc([N+](=O)[O-])cc1)C(F)(F)F` belongs 500 nM; to `C[C@@]1(C(F)(F)F)CN(c2cccc[n+]2[O-])c2cc(S(=O)(=O)c3ccccc3)ccc2O1`, 280 nM.
`C[C@]1(C(F)(F)F)CN(c2cccc[n+]2[O-])c2cc(S(=O)(=O)c3ccccc3)ccc2O1` showed an IC50 of 680 nM. Compared with the last molecule, the IC50 is about 2.4-fold higher.
Take `O=[N+]([O-])c1ccc2c(c1)N(c1cccc[n+]1[O-])CC(C(F)F)(C(F)F)O2`: the IC50 is 7 nM.
In the case of `CC1(C(F)(F)F)CN(c2cccc[n+]2[O-])c2cc(S(=O)(=O)c3ccccc3)ccc2O1` (stereo not drawn), the IC50 came to 540 nM.
Take `CC1(C)CN(c2cccc[n+]2[O-])c2cc(S(=O)(=O)c3ccccc3)ccc2O1`: the concentration for half-maximal inhibition (IC50) amounted to 4100 nM.
In the case of `CC1(C)Oc2ccc(C#N)cc2[C@@H](N2CCCC2=O)[C@@H]1O` [CROMAKALIM], 600 nM corresponded to half-maximal inhibition (IC50).
